Assays:
[1] = tested on: Tg2576 AD mice; experiment: Abeta plaque load by immunohistology (BAM-10) in Tg2576 mice; type: in vivo, mouse; conditions: 18-month-old Tg2576 mice, 8 mg/kg/d in drinking water for 6 months, vs untreated Tg2576 controls
Excerpt: For a genetic model of familial AD (FAD), Tg2576 mice (Taconic Biosciences, Rensselaer, N.Y., USA) were used with neuron-specific overexpression of human APPSwe, i.e the Swedish mutation of APP695 isolated from a Swedish family with FAD featuring the double mutation K670N/M671L (Hsiao et al., Science 274, 99-103 (1996)). As a genetic model of tauopathy, the Tg-TauP301L mice (Model 2508, Taconic Biosciences, Rensselaer, N.Y., USA) with neuron-specific expression of the most common FTDP-17 (frontotemporal dementia and parkinsonism linked to chromosome 17) mutation (Lewis et al., Nature Genetics 25, 402-405 (2000)) were used. To enhance neurodegeneration and neuronal loss, the CUMS (chronic unpredictable mild stress) protocol was performed with male 12 months-old Tg2576 mice for 3 months essentially as described (AbdAlla et al., J. Biol. Chem. 284, 6554-6565 (2009); AbdAlla et al., J. Biol. Chem. 284, 6566-6574 (2009)). […]
For Abeta plaque load quantification by immunohistochemistry, paraffin-embedded brain sections (or cryosections) (8 microm, 10-15 sections/brain taken at 30-50 microm intervals) were prepared from brains isolated from 18-month-old Tg2576 mice (Taconic Biosciences, Rensselaer, N.Y., USA) treated for six months without and with Compound-1 and Compound-4 (8 mg/kg body weight/day in drinking water). […]

[2] = tested on: rats subjected to the CUMS protocol; experiment: Immunoblot detection of hippocampal PHF-Tau (AT8) in aged rats subjected to CUMS; type: in vivo, rat; conditions: 16 months-old rats, CUMS for 4 weeks, oral treatment 8 mg/kg/d
Protocol: As a model for reproducing major features of sporadic AD and depression, 15 months-old male rats were […] according to the CUMS protocol for 4 weeks. The following stimuli were administered each week in a random order: two periods (7 h and 17 h) of 45° cage tilt; soaked cage for 17 h; food deprivation (24 h) and water deprivation (12 h), twice a week; paired housing (17 h); overnight illumination during the dark phase, twice a week; noise (85 dB) in the room for 5 h, twice a week; flashing light (60 flashes/min) for 6 h, three times a week (AbdAlla et al., Biomed. Res. Int. 2015:917156 (2015); El-faramawy et al., Pharmacol. Biochem. Behav. 91, 339-344 (2009)). The sucrose preference test (2% sucrose in water) was done immediately after a period of food and water deprivation. […]
For immunoblot detection of PHF-Tau in the hippocampus of aged 16 month-old rats subjected to the CUMS protocol for 4 weeks, hippocampi were dissected out from isolated brains on ice, pulverized under liquid nitrogen, and proteins were extracted with guanidine-hydrochloride (6.25 M guanidine hydrochloride in 50 mM Tris, pH 8.0 supplemented with 1× protease inhibitors and 1× phosphatase inhibitors) for 30 min at 4° C. […] For quantitative analysis, quantitative immunoblot evaluation was performed. To control for equal protein loading, the total content of hippocampal Gnb was determined. […]

## O=C(C1=C(O)C(c2ccccc2)N(c2ccc3c(c2)OCO3)C1=O)C1CC1 (centres unmarked) [Compound-1, 1-(1,3-benzodioxol-5-yl)-4-(cyclopropane-carbonyl)-3-hydroxy-2-phenyl-2H-pyrrol-5-one]
[1]
  Abeta plaque load in hippocampus and frontal cortex: significantly retarded the accumulation of Abeta plaques
[2]
  hippocampal PHF Tau hyperphosphorylation (immunoblot AT8): retard PHF Tau hyperphosphorylation
